Data taken from ChEMBL document CHEMBL5625270, “Targeting ATP-binding site of WRN Helicase: Identification of novel inhibitors through pocket analysis and Molecular Dynamics-Enhanced virtual screening” (Bioorg Med Chem Lett, 2024).
Activity calls are given as the source filed them. No cut-off for these calls is given here.

Legend:
[1] = target: T1, Bifunctional 3'-5' exonuclease/ATP-dependent helicase WRN (Homo sapiens, UniProt Q14191); assay: Inhibition of WRN (unknown origin)
[2] = target: RecQ-like DNA helicase BLM (Homo sapiens, UniProt P54132); assay: Inhibition of BLM (unknown origin) ATPase activity
[3] = organism: Homo sapiens; assay: Inhibition of HSP90 (unknown origin) ATPase activity at <200 uM
[4] = target: T1, Bifunctional 3'-5' exonuclease/ATP-dependent helicase WRN; assay: Inhibition of WRN (unknown origin) ATPase activity
[5] = target: T2, Eukaryotic initiation factor 4A-I (Homo sapiens, UniProt P60842); assay: Inhibition of eIF4A (unknown origin) ATPase activity
[6] = target: T1, Bifunctional 3'-5' exonuclease/ATP-dependent helicase WRN; assay: Inhibition of recombinant human WRN unwinding activity by immunosorbent-based helicase unwinding assay
[7] = Inhibition of HSP90 (unknown origin) ATPase activity; parameters: species or system Homo sapiens
[8] = target: T2, Eukaryotic initiation factor 4A-I; assay: Inhibition of eIF4A (unknown origin) ATPase activity at <200 uM
[9] = target: T2, Eukaryotic initiation factor 4A-I; assay: Inhibition of eIF4A (unknown origin) ATPase activity within 200 uM
[10] = organism: Homo sapiens; assay: Inhibition of HSP90 (unknown origin) ATPase activity within 200 uM
[11] = tested on: Microsatellite instability cancer cell; assay: Cytotoxicity against Microsatellite instability cancer cell (unknown origin); type: functional, cell-based

T1 sequence (Q14191 whole entry): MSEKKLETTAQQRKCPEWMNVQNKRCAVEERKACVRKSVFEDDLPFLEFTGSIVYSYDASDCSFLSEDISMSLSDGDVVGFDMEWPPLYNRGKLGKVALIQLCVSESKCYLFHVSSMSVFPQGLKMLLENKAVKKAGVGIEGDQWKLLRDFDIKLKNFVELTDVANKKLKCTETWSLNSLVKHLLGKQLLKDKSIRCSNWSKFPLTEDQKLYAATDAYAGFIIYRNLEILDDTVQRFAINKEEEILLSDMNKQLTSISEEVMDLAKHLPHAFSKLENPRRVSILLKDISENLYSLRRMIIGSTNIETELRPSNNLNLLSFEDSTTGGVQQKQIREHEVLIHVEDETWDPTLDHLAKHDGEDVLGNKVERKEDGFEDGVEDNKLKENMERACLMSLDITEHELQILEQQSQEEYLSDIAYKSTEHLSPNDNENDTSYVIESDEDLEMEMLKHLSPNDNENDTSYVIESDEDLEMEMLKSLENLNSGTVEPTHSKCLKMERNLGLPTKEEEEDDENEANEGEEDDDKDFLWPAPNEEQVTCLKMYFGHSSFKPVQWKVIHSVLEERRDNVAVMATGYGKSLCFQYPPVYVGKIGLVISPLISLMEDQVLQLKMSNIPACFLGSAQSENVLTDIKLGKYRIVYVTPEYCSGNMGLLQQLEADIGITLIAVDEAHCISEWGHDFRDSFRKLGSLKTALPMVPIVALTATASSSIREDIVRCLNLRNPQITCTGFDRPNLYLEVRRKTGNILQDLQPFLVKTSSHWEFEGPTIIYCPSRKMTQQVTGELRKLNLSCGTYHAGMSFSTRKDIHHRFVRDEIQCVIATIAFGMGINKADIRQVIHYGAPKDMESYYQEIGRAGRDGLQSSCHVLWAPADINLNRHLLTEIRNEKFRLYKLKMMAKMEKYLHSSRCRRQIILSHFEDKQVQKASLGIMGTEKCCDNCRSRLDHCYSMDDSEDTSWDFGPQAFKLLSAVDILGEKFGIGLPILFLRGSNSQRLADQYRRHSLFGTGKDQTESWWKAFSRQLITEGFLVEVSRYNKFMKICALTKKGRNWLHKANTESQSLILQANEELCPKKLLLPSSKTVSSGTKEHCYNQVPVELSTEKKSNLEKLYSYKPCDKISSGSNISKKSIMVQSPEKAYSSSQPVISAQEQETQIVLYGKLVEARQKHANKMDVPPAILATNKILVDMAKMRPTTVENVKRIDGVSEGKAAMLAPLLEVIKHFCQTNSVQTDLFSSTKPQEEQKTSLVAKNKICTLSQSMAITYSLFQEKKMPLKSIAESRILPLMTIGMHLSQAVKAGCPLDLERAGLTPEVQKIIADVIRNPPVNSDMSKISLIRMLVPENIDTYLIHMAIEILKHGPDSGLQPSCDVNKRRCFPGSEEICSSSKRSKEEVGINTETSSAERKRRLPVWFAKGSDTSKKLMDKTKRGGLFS
T2 sequence (P60842 whole entry): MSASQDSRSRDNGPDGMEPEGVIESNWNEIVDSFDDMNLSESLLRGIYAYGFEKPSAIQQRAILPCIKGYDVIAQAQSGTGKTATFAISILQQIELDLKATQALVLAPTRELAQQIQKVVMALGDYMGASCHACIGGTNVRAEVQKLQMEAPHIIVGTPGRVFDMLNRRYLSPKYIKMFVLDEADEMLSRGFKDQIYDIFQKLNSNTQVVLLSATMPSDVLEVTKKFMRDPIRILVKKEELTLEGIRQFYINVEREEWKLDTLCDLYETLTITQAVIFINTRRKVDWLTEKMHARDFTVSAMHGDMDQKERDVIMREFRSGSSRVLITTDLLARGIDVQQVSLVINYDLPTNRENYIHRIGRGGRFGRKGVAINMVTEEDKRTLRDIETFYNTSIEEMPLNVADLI
Chain of RecQ-like DNA helicase BLM (P54132 whole entry): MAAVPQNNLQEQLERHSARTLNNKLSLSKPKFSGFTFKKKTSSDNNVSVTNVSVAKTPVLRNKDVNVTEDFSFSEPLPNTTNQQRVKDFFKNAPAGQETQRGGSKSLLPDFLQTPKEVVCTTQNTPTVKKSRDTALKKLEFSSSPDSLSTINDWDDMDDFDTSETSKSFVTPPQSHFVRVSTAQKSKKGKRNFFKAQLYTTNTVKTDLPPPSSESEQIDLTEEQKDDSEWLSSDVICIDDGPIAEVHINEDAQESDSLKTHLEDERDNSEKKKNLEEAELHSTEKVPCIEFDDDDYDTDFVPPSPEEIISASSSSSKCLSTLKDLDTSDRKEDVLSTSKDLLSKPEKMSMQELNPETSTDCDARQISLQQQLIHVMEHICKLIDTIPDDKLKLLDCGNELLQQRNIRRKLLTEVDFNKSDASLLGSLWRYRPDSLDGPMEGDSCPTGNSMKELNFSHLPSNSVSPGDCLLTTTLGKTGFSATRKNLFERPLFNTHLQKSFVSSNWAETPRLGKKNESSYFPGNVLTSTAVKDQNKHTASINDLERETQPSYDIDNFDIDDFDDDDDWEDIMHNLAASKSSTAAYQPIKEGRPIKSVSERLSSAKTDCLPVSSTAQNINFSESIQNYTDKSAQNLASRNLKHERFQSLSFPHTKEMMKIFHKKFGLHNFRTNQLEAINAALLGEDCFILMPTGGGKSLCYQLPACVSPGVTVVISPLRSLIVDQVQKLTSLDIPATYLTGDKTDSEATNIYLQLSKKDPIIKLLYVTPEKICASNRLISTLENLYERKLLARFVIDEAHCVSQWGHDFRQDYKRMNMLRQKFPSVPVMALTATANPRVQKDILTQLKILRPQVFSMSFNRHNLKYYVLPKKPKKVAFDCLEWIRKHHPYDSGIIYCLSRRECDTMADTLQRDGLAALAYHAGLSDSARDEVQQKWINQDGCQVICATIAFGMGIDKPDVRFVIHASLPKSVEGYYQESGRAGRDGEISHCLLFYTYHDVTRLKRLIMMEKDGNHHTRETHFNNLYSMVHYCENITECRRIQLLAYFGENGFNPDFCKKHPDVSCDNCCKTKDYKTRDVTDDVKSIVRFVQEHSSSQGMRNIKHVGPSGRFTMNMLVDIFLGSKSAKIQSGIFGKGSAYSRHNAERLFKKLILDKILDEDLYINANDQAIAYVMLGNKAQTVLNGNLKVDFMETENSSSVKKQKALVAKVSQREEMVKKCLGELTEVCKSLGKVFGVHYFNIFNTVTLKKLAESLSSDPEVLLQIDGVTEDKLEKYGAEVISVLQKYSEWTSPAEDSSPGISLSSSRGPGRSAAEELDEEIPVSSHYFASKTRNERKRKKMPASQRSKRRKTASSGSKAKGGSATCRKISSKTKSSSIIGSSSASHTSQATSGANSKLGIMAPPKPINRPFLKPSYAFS

SMILES	IC50 [1] [µM]	IC50 [2] [µM]	inhibition [3]	IC50 [4] [µM]	IC50 [5] [µM]	IC50 [6] [µM]	IC50 [7] [µM]	inhibition [8]	inhibition [9]	inhibition [10]	Activity [11]
COc1ccc2nc(O)c(-c3noc(-c4ccccc4)n3)cc2c1	2.3	–	–	–	–	–	–	–	–	–	–
O=C1/C(=C2\Nc3ccc(S(=O)(=O)O)cc3C2=O)Nc2ccc(S(=O)(=O)O)cc21 [INDIGOTINDISULFONATE]	–	3.3	Active	5	> 200	0.2	> 200	Active	–	–	–
CC(C)(CN1C(=O)C(Cl)=C(Cl)C1=O)CN1C(=O)C(Cl)=C(Cl)C1=O	0.23	11.3	–	88.7	–	–	–	–	inactive	inactive	–
CCC(=O)OCN1C(=O)C=CC1=O	–	1.6	–	10.4	> 200	–	–	Active	–	inactive	–
COc1ccc2nc(O)c(-c3noc(-c4ccc(F)cc4)n3)cc2c1	13	–	–	–	–	–	–	–	–	–	–
Cc1ccc(NC(=O)CN2C(=O)N/C(=C/c3ccccc3OCc3cccc(C(=O)O)c3)C2=O)cc1	–	26.3	–	15.8	–	9.8	47.6	–	inactive	–	inactive
